Laboratory results: paper PMC4286029 (Inflammation Research, 2014)

Assays:
CSK = biological target: T1, CSK (Homo sapiens, UniProt P41240); assay: KinaseProfiler selectivity: CSK; type: biochemical
T1 construct: purchased Millipore Co. Ltd. (KinaseProfiler service)
Procedure: (§1) […]; The selectivity of JTE-052 for other kinases was assessed using KinaseProfiler™ (Millipore Co. Ltd.). […].

GSK3β = biological target: T2, GSK3β (Homo sapiens, UniProt P49841); assay: KinaseProfiler selectivity: GSK3β; type: biochemical
T2 construct: purchased Millipore Co. Ltd. (KinaseProfiler service)
Procedure: as §1

EGFR = biological target: T3, EGFR (Homo sapiens, UniProt P00533); assay: KinaseProfiler selectivity: EGFR; type: biochemical
T3 construct: purchased Millipore Co. Ltd. (KinaseProfiler service)
T3 sequence (P00533 25-1210, species assumed): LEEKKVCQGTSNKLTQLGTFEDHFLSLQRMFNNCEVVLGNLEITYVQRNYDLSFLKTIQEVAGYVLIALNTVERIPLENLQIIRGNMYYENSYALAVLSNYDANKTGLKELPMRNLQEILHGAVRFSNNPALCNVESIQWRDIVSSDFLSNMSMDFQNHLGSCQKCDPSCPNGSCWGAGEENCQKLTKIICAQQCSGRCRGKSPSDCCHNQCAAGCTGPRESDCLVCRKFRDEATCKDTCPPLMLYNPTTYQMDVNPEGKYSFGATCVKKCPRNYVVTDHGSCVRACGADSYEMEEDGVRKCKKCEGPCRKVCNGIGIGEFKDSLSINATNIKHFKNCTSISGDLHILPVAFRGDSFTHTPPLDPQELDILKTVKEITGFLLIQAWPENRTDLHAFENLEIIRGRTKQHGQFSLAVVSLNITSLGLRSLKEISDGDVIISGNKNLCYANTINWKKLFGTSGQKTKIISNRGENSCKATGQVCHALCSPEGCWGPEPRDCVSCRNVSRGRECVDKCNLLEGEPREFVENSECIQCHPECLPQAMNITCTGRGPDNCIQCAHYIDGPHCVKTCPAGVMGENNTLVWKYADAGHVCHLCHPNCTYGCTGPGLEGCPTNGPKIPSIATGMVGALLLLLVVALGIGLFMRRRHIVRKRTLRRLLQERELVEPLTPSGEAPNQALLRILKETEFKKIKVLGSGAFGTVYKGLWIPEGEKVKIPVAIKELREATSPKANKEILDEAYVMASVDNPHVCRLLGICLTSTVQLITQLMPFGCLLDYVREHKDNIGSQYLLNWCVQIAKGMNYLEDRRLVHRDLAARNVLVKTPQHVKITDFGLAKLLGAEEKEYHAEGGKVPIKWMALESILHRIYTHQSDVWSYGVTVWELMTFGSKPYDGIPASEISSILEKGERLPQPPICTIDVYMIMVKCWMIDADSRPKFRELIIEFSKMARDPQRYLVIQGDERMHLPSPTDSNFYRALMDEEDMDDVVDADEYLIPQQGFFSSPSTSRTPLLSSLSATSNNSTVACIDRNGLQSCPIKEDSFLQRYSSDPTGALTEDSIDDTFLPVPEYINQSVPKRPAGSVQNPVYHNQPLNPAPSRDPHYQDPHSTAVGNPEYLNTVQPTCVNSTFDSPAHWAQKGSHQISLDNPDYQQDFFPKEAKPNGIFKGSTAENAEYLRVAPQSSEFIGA
Procedure: as §1

CK2 = biological target: T4, CK2 (Homo sapiens, UniProt P68400); assay: KinaseProfiler selectivity: CK2; type: biochemical
T4 construct: purchased Millipore Co. Ltd. (KinaseProfiler service)
Procedure: as §1

FGFR3 = biological target: T5, FGFR3 (Homo sapiens, UniProt P22607); assay: KinaseProfiler selectivity: FGFR3; type: biochemical
T5 construct: purchased Millipore Co. Ltd. (KinaseProfiler service)
Procedure: as §1

MAPK2 = biological target: T6, MAPK2 (Homo sapiens, UniProt P28482); assay: KinaseProfiler selectivity: MAPK2; type: biochemical
T6 construct: purchased Millipore Co. Ltd. (KinaseProfiler service)
Procedure: as §1

CDK2/cyclinA = biological target: T7, CDK2/cyclinA (Homo sapiens, UniProt P24941); assay: KinaseProfiler selectivity: CDK2/cyclinA; type: biochemical
T7 construct: purchased Millipore Co. Ltd. (KinaseProfiler service)
Procedure: as §1

IKKβ = biological target: T8, IKKβ (Homo sapiens, UniProt O14920); assay: KinaseProfiler selectivity: IKKβ; type: biochemical
T8 construct: purchased Millipore Co. Ltd. (KinaseProfiler service)
Procedure: as §1

human mast cells = conditions: Mast cell, read-out: IC50, IL-4 priming of Fcε receptor-dependent TNF-α production in mast cells
Procedure: The cells were then replated at 1.2 × 10^5 cells/well and cultured with 1 μg/mL anti-IgE for an additional 5 h at 37 °C. The supernatants were collected, and secretion of TNF-α was measured by ELISA.

Flt1 = biological target: T9, Flt1 (Homo sapiens, UniProt P17948); assay: KinaseProfiler selectivity: Flt1; type: biochemical
T9 construct: purchased Millipore Co. Ltd. (KinaseProfiler service)
T9 sequence (P17948 27-1338, species assumed): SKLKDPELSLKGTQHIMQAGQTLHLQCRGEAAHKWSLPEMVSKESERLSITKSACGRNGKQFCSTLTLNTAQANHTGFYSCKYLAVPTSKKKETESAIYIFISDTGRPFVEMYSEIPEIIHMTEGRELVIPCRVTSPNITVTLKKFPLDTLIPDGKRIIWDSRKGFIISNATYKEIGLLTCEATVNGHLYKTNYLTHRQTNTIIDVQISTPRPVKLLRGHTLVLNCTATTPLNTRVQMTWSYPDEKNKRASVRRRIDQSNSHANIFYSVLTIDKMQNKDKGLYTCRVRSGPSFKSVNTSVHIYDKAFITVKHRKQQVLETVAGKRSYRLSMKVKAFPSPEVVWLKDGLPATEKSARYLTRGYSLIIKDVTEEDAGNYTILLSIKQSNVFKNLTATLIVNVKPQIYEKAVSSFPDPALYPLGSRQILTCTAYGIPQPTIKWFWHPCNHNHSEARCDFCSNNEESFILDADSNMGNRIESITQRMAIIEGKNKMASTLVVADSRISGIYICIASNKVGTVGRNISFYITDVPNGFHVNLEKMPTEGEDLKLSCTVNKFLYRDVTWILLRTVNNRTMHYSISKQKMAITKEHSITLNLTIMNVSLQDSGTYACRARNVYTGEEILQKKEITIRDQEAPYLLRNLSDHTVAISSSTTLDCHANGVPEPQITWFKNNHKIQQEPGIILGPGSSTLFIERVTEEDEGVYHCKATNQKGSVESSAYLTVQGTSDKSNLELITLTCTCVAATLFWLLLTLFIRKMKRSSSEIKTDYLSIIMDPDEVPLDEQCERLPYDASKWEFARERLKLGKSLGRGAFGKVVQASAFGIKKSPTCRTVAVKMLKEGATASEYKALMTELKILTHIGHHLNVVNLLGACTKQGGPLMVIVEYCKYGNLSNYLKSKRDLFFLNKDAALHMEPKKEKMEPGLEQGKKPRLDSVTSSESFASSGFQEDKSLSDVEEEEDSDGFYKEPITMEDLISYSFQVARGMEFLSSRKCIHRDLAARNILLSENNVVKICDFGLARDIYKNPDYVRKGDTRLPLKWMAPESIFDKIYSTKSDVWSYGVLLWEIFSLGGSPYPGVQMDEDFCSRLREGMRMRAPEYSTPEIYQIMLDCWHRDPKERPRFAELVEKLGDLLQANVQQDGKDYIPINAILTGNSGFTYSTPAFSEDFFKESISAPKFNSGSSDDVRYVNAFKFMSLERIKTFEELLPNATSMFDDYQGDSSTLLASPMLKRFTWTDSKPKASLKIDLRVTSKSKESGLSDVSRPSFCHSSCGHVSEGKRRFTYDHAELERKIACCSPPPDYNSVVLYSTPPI
Procedure: as §1

SAPK2b = biological target: T10, SAPK2b (Homo sapiens, UniProt Q15759); assay: KinaseProfiler selectivity: SAPK2b; type: biochemical
T10 construct: purchased Millipore Co. Ltd. (KinaseProfiler service)
Procedure: as §1

[1] = system: rat collagen-induced arthritis model; assay: Collagen-induced arthritis in rats; type: in vivo, Lewis rats
Procedure: CIA was induced in rats as previously described with some modifications. Briefly, type II collagen (Collagen Research Center, Saitama, Japan) was dissolved in 0.01 M acetic acid at 2 mg/mL, and the solution was emulsified in an equal volume of Freund’s incomplete adjuvant (Difco Laboratories, Detroit, MI). Lewis rats were immunized with 1 mL of the emulsion (1 mg of type II collagen) via ten intradermal injections on the back under anesthesia. The rats were then challenged with 0.2 mL of the emulsion injected into the base of the tail on day 8 under anesthesia. The test drugs were given orally once daily from day 1 to day 21 (preventive administration) or from day 15 to day 28 (therapeutic administration). After arthritis induction, the hind paw volume was measured by a water displacement method using a plethysmometer (Muromachi Kikai Co. Ltd., Tokyo, Japan). On day 22 or day 29, the rats were euthanized, and their hind paws were excised and X-rayed or processed for histological evaluation. Radiographs of the right hindlimbs were taken using a microfocal cone-beam X-ray CT scanner (MCT-CB100MF; Hitachi Medical Corporation, Tokyo, Japan). The severity of bone destruction was scored on a 3-point scale ranging from 0 to 2 for the following five joints: second metatarsal—second intertarsal joint, third metatarsal—third intertarsal joint, talus—central intertarsal joint, calcaneus—fourth intertarsal joint, and astragalo—tibial joint. For histological analysis, the formalin-fixed left hindlimbs were sectioned and stained with hematoxylin and eosin. The histology of the tarsal joints was evaluated by assessing the following parameters defined in the preliminary examination: inflammatory cell infiltration, synovial cell hyperplasia, cartilage destruction, and bone destruction. The severity of each histological change was scored on a 5-point scale ranging from 0 to 4. (Score 0: normal; Score 1: minimal, solitary (and very small) lesion; Score 2: slight, focal (and small) lesion; Score 3: moderate, scattered lesion; and Score 4: severe, extensive lesion).
(§2) . The hind paw volume (a) and body weight (b) were measured periodically. Images of hematoxylin and eosin staining (c) and radiographs of hindlimbs (e) are shown. Histological change (d) and radiographical change (f) were scored. The results are expressed as mean ± SD. ^# p < 0.05, ^## p < 0.01, versus vehicle by the Steel test
as §2, with “SD. *p < 0.05, **p < 0.01, versus vehicle by Dunnett’s test.” for “SD.”

Lck = biological target: T11, Lck (Homo sapiens, UniProt P06239); assay: KinaseProfiler selectivity: Lck; type: biochemical
T11 construct: purchased Millipore Co. Ltd. (KinaseProfiler service)
T11 sequence (P06239 whole entry, species assumed): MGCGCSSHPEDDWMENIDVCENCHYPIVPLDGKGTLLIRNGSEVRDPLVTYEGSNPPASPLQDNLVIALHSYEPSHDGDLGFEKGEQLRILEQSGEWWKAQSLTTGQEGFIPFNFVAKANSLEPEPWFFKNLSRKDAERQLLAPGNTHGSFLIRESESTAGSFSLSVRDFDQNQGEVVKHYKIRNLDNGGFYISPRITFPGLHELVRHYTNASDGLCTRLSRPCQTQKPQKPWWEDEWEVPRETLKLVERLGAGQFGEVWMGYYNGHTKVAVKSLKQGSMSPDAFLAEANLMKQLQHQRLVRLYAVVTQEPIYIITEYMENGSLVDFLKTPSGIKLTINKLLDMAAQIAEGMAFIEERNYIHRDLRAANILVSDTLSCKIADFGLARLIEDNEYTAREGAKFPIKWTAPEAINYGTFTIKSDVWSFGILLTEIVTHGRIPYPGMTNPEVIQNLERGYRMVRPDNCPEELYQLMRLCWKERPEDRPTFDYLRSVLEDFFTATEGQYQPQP
Procedure: as §1

c-RAF = biological target: T12, c-RAF (Homo sapiens, UniProt P04049); assay: KinaseProfiler selectivity: c-RAF; type: biochemical
T12 construct: purchased Millipore Co. Ltd. (KinaseProfiler service)
T12 sequence (P04049 whole entry, species assumed): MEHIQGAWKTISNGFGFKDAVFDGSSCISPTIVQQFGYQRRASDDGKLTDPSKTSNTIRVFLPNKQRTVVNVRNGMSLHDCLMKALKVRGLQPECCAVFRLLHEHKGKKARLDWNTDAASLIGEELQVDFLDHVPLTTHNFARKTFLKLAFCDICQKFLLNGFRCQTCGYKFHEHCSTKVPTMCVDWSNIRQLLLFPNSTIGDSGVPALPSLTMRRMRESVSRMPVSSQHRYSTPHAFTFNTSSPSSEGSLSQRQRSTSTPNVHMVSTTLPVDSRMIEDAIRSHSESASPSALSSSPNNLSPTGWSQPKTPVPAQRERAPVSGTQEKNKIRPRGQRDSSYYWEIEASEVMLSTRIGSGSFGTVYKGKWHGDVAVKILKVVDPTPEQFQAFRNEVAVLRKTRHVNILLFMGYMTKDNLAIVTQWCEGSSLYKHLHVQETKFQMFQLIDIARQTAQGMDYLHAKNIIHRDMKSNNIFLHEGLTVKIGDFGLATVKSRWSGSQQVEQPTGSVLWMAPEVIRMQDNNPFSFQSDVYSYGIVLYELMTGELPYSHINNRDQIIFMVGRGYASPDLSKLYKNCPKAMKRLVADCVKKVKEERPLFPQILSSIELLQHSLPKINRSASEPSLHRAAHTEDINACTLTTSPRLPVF
Procedure: as §1

Plk1 = biological target: T13, Plk1 (Homo sapiens, UniProt P53350); assay: KinaseProfiler selectivity: Plk1; type: biochemical
T13 construct: purchased Millipore Co. Ltd. (KinaseProfiler service)
Procedure: as §1

[2] = system: kinases in KinaseProfiler; assay: KinaseProfiler panel as a whole (selectivity for other kinases); type: biochemical; conditions: concentration of 1,000 nM
Procedure: as §1

IR = biological target: T14, IR (Homo sapiens, UniProt P06213); assay: KinaseProfiler selectivity: IR; type: biochemical
T14 construct: purchased Millipore Co. Ltd. (KinaseProfiler service)
Procedure: as §1

PDK1 = biological target: T15, PDK1 (Homo sapiens, UniProt O15530); assay: KinaseProfiler selectivity: PDK1; type: biochemical
T15 construct: purchased Millipore Co. Ltd. (KinaseProfiler service)
Procedure: as §1

SGK = biological target: T16, SGK (Homo sapiens, UniProt O00141); assay: KinaseProfiler selectivity: SGK; type: biochemical
T16 construct: purchased Millipore Co. Ltd. (KinaseProfiler service)
Procedure: as §1

ROCK-II = biological target: T17, ROCK-II (Homo sapiens, UniProt O75116); assay: KinaseProfiler selectivity: ROCK-II; type: biochemical
T17 construct: purchased Millipore Co. Ltd. (KinaseProfiler service)
T17 sequence (O75116 whole entry, species assumed): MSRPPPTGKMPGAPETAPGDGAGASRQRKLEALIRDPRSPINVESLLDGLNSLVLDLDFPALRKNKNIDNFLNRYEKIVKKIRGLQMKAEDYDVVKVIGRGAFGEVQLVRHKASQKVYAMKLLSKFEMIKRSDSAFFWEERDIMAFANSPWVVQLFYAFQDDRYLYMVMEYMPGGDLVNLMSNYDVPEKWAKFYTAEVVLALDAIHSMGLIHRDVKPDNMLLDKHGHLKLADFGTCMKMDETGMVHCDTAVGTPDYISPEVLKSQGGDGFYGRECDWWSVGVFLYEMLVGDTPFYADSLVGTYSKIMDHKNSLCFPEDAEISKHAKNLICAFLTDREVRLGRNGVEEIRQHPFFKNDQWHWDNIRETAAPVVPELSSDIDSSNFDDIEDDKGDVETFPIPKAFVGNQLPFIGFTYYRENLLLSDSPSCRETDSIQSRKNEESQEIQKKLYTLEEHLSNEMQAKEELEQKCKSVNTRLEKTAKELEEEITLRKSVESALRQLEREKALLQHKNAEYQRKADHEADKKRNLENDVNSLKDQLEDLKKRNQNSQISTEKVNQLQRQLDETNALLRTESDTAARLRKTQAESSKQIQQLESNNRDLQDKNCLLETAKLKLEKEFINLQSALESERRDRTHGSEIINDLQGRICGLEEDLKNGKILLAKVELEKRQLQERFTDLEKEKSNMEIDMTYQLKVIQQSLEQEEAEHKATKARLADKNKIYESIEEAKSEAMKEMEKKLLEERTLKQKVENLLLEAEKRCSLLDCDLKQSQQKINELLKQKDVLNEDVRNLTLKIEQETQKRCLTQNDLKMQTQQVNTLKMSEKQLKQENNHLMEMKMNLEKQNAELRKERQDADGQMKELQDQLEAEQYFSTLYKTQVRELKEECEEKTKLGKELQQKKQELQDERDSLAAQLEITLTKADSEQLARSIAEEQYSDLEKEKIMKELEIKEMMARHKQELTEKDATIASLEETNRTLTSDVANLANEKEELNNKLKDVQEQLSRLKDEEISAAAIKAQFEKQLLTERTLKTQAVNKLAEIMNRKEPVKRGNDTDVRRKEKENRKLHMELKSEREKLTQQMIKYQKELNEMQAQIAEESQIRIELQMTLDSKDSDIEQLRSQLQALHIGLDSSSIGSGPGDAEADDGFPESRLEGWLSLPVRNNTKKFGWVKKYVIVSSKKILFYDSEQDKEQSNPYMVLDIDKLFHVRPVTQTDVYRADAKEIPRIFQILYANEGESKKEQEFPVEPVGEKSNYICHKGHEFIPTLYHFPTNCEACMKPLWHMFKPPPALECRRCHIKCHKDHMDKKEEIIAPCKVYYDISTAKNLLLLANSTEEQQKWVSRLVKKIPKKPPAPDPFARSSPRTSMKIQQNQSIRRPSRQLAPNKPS
Procedure: as §1

C[C@H]1CN(C(=O)CC#N)[C@]12CCN(c1ncnc3[nH]ccc13)C2 [JTE-052]
IC50 (CSK): > 1000 nM | IC50 (GSK3β): > 1000 nM | IC50 (EGFR): > 1000 nM | IC50 (CK2): > 1000 nM | IC50 (FGFR3): > 1000 nM | IC50 (MAPK2): > 1000 nM | IC50 (CDK2/cyclinA): > 1000 nM | IC50 (IKKβ): > 1000 nM | IC50 (human mast cells): 133 ± 18 nM | IC50 (Flt1): > 1000 nM | IC50 (SAPK2b): > 1000 nM | effect on bone and cartilage destruction (radiographic, histological), preventive administration ([1]; oral once daily from day 1): inhibited radiographic and histological changes of bone destruction and cartilage destruction | effect on hind paw swelling and joint inflammation, preventive administration ([1]; oral once daily from day 1, JTE-052 0.1, 1, 10 mg/kg, MTX 0.3 mg/kg): prevented the development of hind paw swelling | IC50 (Lck): > 1000 nM | IC50 (c-RAF): > 1000 nM | IC50 (Plk1): > 1000 nM | inhibition of other kinases in KinaseProfiler [2]: did not inhibit any of the kinases even at the concentration of 1,000 nM, except for ROCK-II | IC50 (IR): > 1000 nM | IC50 (PDK1): > 1000 nM | IC50 (SGK): > 1000 nM | IC50 (ROCK-II): 141 nM
